Test results reported in patent US20260224549A1, “COMPOUNDS, COMPOSITIONS, AND METHODS FOR TREATING, AMELIORATING, AND/OR PREVENTING PAIN” (priority 2023, published 2026).
Read-outs that look alike come from different tables or passages of the source.

Columns and labels:
[1] = Description: The screen was performed using solvent recrystallizations using different conditions, as well as non-competitive slurry experiments, to manipulate the solid-state form of the test material. Samples generated during the study were characterized using differential scanning calorimetry (DSC), thermogravimetric analysis (TGA), powder X-ray diffraction (XRD), and dynamic vapor sorption (DVS).
To perform the solvent-based portion of the polymorph screen, the test material was recrystallized using various solvents under approximately 78 different crystal growth conditions. The scale of the recrystallization experiments was approximately 1 to 20 mL. The method of changing the crystal growth conditions was by using single and binary arrays of solvent mixtures. The saturation temperature, growth temperature, and evaporation rate were also varied to create additional differences in crystal growth conditions.
Saturated solutions were prepared by agitating excess test material in contact with the various solvent systems at the saturation temperature. The mother liquor was separated from the residual solids by filtration if solids remained in the solution. The mother liquor was then heated above the saturation temperature to dissolve any remaining solids. The temperature of each solution was then adjusted to the growth temperature and a controlled nitrogen shear flow was introduced to begin solvent evaporation.
In addition to the solvent recrystallization experiments, non-competitive slurry experiments were performed to search for new solid-state forms. These experiments rely on solubility differences of different polymorphic form, if the compound exists in different polymorphic forms. As such, only polymorphs having a lower solubility (i.e., increased stability) than the original crystalline form can result from a non-competitive slurry experiment.
Essentially, when a solid is mixed with solvent to create slurry, a saturated solution is formed. The solution is saturated with respect to the polymorphic form dissolved.
The slurry experiments described herein were performed by exposing excess supplied material (i.e., Form A) to solvents and agitating the resulting suspensions for one week at ambient temperature. The solids were filtered and analyzed by XRD to determine the resulting form(s).
Solids generated from the solvent based recrystallization panels and otherwise provided samples were analyzed by powder XRD. To mitigate preferred grain effects, a two dimensional detection system was used to collect all the XRD screening data. The two dimensional detector integrates along the concentric Debye cones which helps reduce pattern variation. If bright spots appear in the conical rings, it indicates strong preferred grain effects that can lead to considerable variability in the observed diffraction patterns including changes in peak intensities.
The analysis entailed cluster analysis and multivariate statistics to group together any patterns that were determined to be statistically the same.
In the dendrogram, each pair of diffraction patterns is connected via a single node, which corresponds to a dissimilarity value (between 0 and 1) on the y-axis. The higher the connecting node is, the more dissimilar the two patterns are. A threshold dissimilarity value (~0.4 in this case) is used to group similar patterns into clusters, which should correspond to different solid state forms. The cluster plot is a 3D representation of the same analysis.

[2] = Static vapor sorption studies; type: physicochemical; conditions: Panel: Static humidity; 7 experiments
From the text: Static Vapor Sorption Studies
Static vapor sorption studies were done in hermetic humidity chambers using saturated salts, or environmental humidity chambers to control the temperature and humidity. Data collected during dynamic vapor sorption studies often are not at thermodynamic equilibrium. To gain a better understanding of the water uptake and the critical humidity level of the API, samples of the starting material (i.e., Form A) were monitored in static humidity chambers to allow the sample to equilibrate with atmospheric moisture.
In these studies, water vapor sorption was determined gravimetrically by storing samples in open aluminum dishes. Compound I diphosphate salt lot was used for this study. Samples were stored at 7 different humidity levels at ambient temperature (Table 19). Approximately 50 mg of Form A was staged at each humidity condition. The samples were weighed before placing them in the chamber and then re-weighed after 3 weeks. After re-weighing, the samples were immediately analyzed by XRD to determine whether a change in form had occurred.
The sample stored at 11% RH was an outlier and was therefore omitted from the final isotherm plot. The static isotherm plot is roughly consistent with the DVS isotherm plot (FIG. 12F) with a large moisture uptake at around 40% RH and a maximum uptake between 4 and 5 weight percent.

[3] = Panel: Anti-solvent addition, 15 experiments
[4] = Panel: Cooled to −20° C., single solvent, 12 experiments
[5] = Panel: Fast evaporation, binary solvent, 13 experiments
[6] = Panel: Fast evaporation, single solvent, 65° C., 14 experiments
[7] = Panel: Fast evaporation, single solvent, ambient, 24 experiments
[8] = Panel: Non-competitive slurries, 15 experiments
[9] = Total of all panels, 100 experiments

Question: For `CN(C)C[C@H]1CN(CCc2ccsc2)CC[C@]1(O)c1cccc(C(N)=O)c1` [Compound I, 3-(3S, 4R)-3-((dimethylamino)methyl)-4-hydroxy-1-(2-(thiophen-3-yl)ethyl)piperidin-4-yl-benzamide], which “No. of experiments giving Amorphous Form” value [1, 3] is on record?
Answer: 0

Question: And the “No. of experiments giving Form A” value [1, 3]?
Answer: 9

Question: And the “No. of experiments with No solid recovered” value [1, 3]?
Answer: 6

Question: And the “No. of experiments giving Amorphous Form” value [1, 4]?
Answer: 0

Question: What about the “No. of experiments giving Form A” value [1, 4] of the same molecule?
Answer: 0

Question: What about the “No. of experiments with No solid recovered” value [1, 4] of the same molecule?
Answer: 12

Question: And the “No. of experiments giving Amorphous Form” value [1, 5]?
Answer: 1

Question: What about the “No. of experiments giving Form A” value [1, 5] of the same molecule?
Answer: 9

Question: And the “No. of experiments with No solid recovered” value [1, 5]?
Answer: 3

Question: What about the “No. of experiments giving Amorphous Form” value [1, 6] of the same molecule?
Answer: 2

Question: What about the “No. of experiments giving Form A” value [1, 6] of the same molecule?
Answer: 4

Question: And the “No. of experiments with No solid recovered” value [1, 6]?
Answer: 8

Question: And the “No. of experiments giving Amorphous Form” value [1, 7]?
Answer: 6

Question: What about the “No. of experiments giving Form A” value [1, 7] of the same molecule?
Answer: 1

Question: And the “No. of experiments with No solid recovered” value [1, 7]?
Answer: 17

Question: What about the “No. of experiments giving Amorphous Form” value [1, 8] of the same molecule?
Answer: 0

Question: What about the “No. of experiments giving Form A” value [1, 8] of the same molecule?
Answer: 13

Question: What about the “No. of experiments with No solid recovered” value [1, 8] of the same molecule?
Answer: 2

Question: And the “No. of experiments giving Amorphous Form” value [1, 9]?
Answer: 9

Question: What about the “No. of experiments giving Form A” value [1, 9] of the same molecule?
Answer: 43

Question: What about the “No. of experiments with No solid recovered” value [1, 9] of the same molecule?
Answer: 48

Question: What about the “% of Total experiments giving Amorphous Form” value ([1]; all panels, 100 experiments) of the same molecule?
Answer: 9%

Question: What about the “% of Total experiments giving Form A” value ([1]; all panels, 100 experiments) of the same molecule?
Answer: 43%

Question: What about the “% of Total experiments with No solid recovered” value ([1]; all panels, 100 experiments) of the same molecule?
Answer: 48%

Question: And the “No. of experiments giving Amorphous Form” value [2]?
Answer: 0

Question: And the “No. of experiments giving Form A” value [2]?
Answer: 7

Question: And the “No. of experiments with No solid recovered” value [2]?
Answer: 0
